{"source": "ChEMBL document CHEMBL1127118", "about": "(Bioorg Med Chem Lett, 1993)", "key": {"[1]": {"target": "5-hydroxytryptamine receptor 1B (Rattus norvegicus, UniProt P28564)", "sequence (P28564 whole entry)": "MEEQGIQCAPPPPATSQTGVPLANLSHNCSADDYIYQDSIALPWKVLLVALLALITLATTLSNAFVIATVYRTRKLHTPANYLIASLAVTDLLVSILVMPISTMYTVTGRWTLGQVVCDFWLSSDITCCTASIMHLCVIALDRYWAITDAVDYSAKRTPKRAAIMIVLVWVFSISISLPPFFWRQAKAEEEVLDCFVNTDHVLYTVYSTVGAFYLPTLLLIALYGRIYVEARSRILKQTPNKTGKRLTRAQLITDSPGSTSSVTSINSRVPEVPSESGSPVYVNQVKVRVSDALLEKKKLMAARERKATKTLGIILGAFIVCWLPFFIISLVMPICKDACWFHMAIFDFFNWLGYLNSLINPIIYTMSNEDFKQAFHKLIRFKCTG", "test": "Binding affinity against 5-hydroxytryptamine 1B receptor in rat striatal membranes using [3H]5-HT as radioligand", "type": "cell membranes, Striatum, Membrane"}, "[2]": {"target": "T1, 5-hydroxytryptamine receptor 1A (Rattus norvegicus, UniProt P19327)", "T1 sequence (P19327 whole entry)": "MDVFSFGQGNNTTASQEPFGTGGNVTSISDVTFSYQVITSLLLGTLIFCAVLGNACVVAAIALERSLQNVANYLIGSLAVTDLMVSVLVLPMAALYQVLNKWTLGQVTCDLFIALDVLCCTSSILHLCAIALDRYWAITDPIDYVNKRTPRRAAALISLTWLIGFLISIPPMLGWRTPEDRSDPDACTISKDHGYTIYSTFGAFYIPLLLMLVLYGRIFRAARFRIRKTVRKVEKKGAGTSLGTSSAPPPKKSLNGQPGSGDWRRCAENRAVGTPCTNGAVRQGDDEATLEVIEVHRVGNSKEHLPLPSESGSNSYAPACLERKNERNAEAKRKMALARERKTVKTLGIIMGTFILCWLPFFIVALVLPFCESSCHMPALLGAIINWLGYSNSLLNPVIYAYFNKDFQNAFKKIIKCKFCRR", "test": "Displacement of [3H]8-OH-DPAT from rat hippocampal 5-hydroxytryptamine 1A receptor", "type": "tissue-based, Hippocampus"}, "[3]": {"target": "T1, 5-hydroxytryptamine receptor 1A", "test": "The compound was evaluated for binding affinity against 5-hydroxytryptamine 1A receptor in rat hippocampal membranes using [3H]8-OH-DPAT as radioligand in the presence of 1 mM of MnCl2", "type": "cell membranes, Hippocampus"}, "[4]": {"target": "T1, 5-hydroxytryptamine receptor 1A", "test": "The compound was evaluated for binding affinity against 5-hydroxytryptamine 1A receptor in rat hippocampal membranes using [3H]8-OH-DPAT as radioligand in the presence of 3*10e-5 M GTP gamma S", "type": "cell membranes, Hippocampus"}}, "note": "Where “and” joins values, the source holds several entries; their conditions need not be identical. Identical values can stand only once."}
{"smiles": "COc1c2c(cc3ccccc13)CCC(N)C2", "note": "(stereo not drawn)", "values": [{"measurement": "Ki", "setting": "[1]", "value": 23, "unit": "nM"}, {"measurement": "Ki", "setting": "[2]", "value": 2520, "unit": "nM"}]}
{"smiles": "CCCN(CCC)C1CCc2cccc(OC)c2C1", "note": "(stereo not drawn)", "values": [{"measurement": "Ki", "setting": "[1]", "value": 3970, "unit": "nM"}, {"measurement": "Ki", "setting": "[2]", "value": 3.05, "unit": "nM"}]}
{"smiles": "COc1cccc2c1CC(N)CC2", "note": "(stereo not drawn)", "values": [{"measurement": "Ki", "setting": "[1]", "value": 902, "unit": "nM"}, {"measurement": "Ki", "setting": "[2]", "value": 158, "unit": "nM"}]}
{"smiles": "COc1cc2ccccc2c2c1CC(N)CC2", "note": "(stereo not drawn)", "values": [{"measurement": "Ki", "setting": "[1]", "value": 76.3, "unit": "nM"}, {"measurement": "Ki", "setting": "[2]", "value": 1060, "unit": "nM"}]}
{"smiles": "CCCN(CCC)C1CCc2c(C)ccc(OC)c2C1", "note": "(stereo not drawn)", "values": [{"measurement": "Ki", "setting": "[1]", "value": 575, "unit": "nM"}, {"measurement": "Ki", "setting": "[2]", "value": 115, "unit": "nM"}]}
{"smiles": "CCCN(CCC)C1CCc2cc3ccccc3c(O)c2C1", "note": "(stereo not drawn)", "values": [{"measurement": "Ki", "setting": "[1]", "value": "> 1000", "unit": "nM"}, {"measurement": "Ki", "setting": "[2]", "value": 2520, "unit": "nM"}]}
{"smiles": "CCCN(CCC)C1CCc2c(c(OC)cc3ccccc23)C1", "note": "(stereo not drawn)", "values": [{"measurement": "Ki", "setting": "[1]", "value": 6340, "unit": "nM"}, {"measurement": "Ki", "setting": "[2]", "value": 1300, "unit": "nM"}]}
{"smiles": "CCCN(CCC)C1CCc2c(C)ccc(O)c2C1", "note": "(stereo not drawn)", "values": [{"measurement": "Ki", "setting": "[1]", "value": "> 10000", "unit": "nM"}, {"measurement": "Ki", "setting": "[3]", "value": 46.6, "unit": "nM"}, {"measurement": "Ki", "setting": "[4]", "value": 81.1, "unit": "nM"}, {"measurement": "Ki", "setting": "[2]", "value": "18.4 nM and 30.8 nM"}]}
{"smiles": "CC(C)(C)NCC(O)COc1cccc2c1SCCC2", "note": "(stereo not drawn) [TERTATOLOL]", "values": [{"measurement": "Ki", "setting": "[3]", "value": 7.71, "unit": "nM"}, {"measurement": "Ki", "setting": "[4]", "value": 37.6, "unit": "nM"}, {"measurement": "Ki", "setting": "[2]", "value": 18.2, "unit": "nM"}]}
{"smiles": "COc1ccc(C)c2c1CC(N)CC2", "note": "(stereo not drawn)", "values": [{"measurement": "Ki", "setting": "[1]", "value": "> 10000", "unit": "nM"}, {"measurement": "Ki", "setting": "[2]", "value": 436, "unit": "nM"}]}
